From patent publication US20240287022A1 (Merck Sharp & Dohme LLC, priority 2021, published 2024)

Target: recombinant IL4I1 (Homo sapiens (Human), UniProt Q96RQ9)
Test: IL4I1 Enzymatic Assay (Amplex Red/HRP coupled H2O2 detection)
Assay type: biochemical
Conditions: 1 nM IL4I1, 1 mM each Phe/Tyr/Trp, four-hour pre-incubation, 120 minutes reaction, top compound concentration of 10000 nM
Protocol: Interleukin 4 inducible protein 1 (IL4I1) is an L-amino oxidase that catalyzes the oxidation of aromatic residues (Phe, Trp and Tyr): L-amino acid+H2O+O2→2-oxo acid+NH3+H2O2. Equal molar of H2O2 and the corresponding alpha-ketoacid are produced when IL4I1 and substrate are added. In this assay, the hydrogen peroxide generated by IL4I1 are then detected through a coupled reaction with Amplex Red (10-acetyl-3,7-dihydroxyphenoxazine) and […] (HRP) to produce Resorufin product that could be detected in the form of fluorescence signals. The assessment of the inhibitory effect of small molecules (EC50) on IL4I1 is measured by the effectiveness of the compounds to inhibit the production of H2O2.
Using this assay, the potency (EC50) of each compound was determined from a ten-point (1:3 serial dilution; top compound concentration of 10000 nM) titration curve using the following outlined procedure. To each well of a black flat-bottom Greiner (Cat #781076) 384 well-plate, 25 nL of compound (0.1% DMSO in final assay volume of 25 μL) was dispensed, followed by the addition of 12.5 μL of 1× assay buffer (50 mM Hepes 7.0 and 0.005% Tween20 (Sigma, Cat #P8341; low peroxide grade)) containing 2 nM of recombinant IL4I1 (R&D Systems, Cat #5684-AO-020). Plates were placed in an ambient temperature humidified chamber for a four-hour pre-incubation with compound. Subsequently, each reaction was initiated by the addition of 12.5 μL 1× assay buffer containing 2 mM of each aromatic amino acids (Phe/Tyr/Trp), 0.1 mM Amplex Red and 2 U/mL of HRP. The final reaction in each well of 25 μL consists of 1 nM of IL4I1, 1 mM of each residues (Phe, Tyr and Trp), 0.05 mM Amplex Red and 1 U/mL of HRP. It should be noted that the concentrations of Amplex Red and HRP used here are in excess such that the conversion of H2O2 to Resorufin product occurs instantaneously and non-rate limiting. Reactions were allowed to proceed for 120 minutes followed by fluorescence readout on a Spectramax with the following set parameters: 544 nm excitation/590 nm emission, 570 nm cutoff (EnVision is an alternative reader). Dose-response curves were generated by plotting percent effect (% product conversion; Y-axis) vs. Log10 compound concentrations (X-axis). EC50 values were calculated using a non-linear regression, four-parameters sigmoidal dose-response model.

Sequence of recombinant IL4I1 (Q96RQ9 22-567): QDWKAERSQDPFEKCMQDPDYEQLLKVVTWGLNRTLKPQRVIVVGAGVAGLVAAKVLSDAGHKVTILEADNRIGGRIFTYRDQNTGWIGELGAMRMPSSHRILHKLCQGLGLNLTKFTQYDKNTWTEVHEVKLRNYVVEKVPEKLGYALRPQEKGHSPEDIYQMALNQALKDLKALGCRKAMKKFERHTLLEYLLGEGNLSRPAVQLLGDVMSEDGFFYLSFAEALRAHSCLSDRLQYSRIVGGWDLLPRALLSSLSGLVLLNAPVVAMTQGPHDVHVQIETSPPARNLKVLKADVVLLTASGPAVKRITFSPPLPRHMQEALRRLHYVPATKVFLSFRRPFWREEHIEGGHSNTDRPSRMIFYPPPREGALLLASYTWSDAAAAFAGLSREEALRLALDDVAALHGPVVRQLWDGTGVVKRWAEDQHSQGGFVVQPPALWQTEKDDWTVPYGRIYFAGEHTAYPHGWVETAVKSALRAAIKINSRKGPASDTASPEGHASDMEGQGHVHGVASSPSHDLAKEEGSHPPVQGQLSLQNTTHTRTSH

Row | Structure (SMILES) | EC50 [nM]
1 | O=c1[nH]c2ccccc2cc1Cc1cnn(CC2(C(F)F)CC2)c1 [Example 111, 3-((1-((1-(difluoromethyl)cyclopropyl)methyl)-1H-pyrazol-4-yl)methyl)quinolin-2(1H)-one] | 24.6
2 | CC(C)(C#N)c1ccc(Cc2cc3ccccc3[nH]c2=O)cc1 [Example 97, 2-methyl-2-(4-((2-oxo-1,2-dihydroquinolin-3-yl)methyl)phenyl)propanenitrile] | 1.4
3 | O=c1[nH]c2c(CO)cccc2cc1Cc1cccc(OC(F)(F)F)c1 [Example 177, 8-(hydroxymethyl)-3-(3-(trifluoromethoxy)benzyl)quinolin-2(1H)-one] | 1910
4 | CC1(c2ccc(Cc3cc4ccccc4[nH]c3=O)cc2)CNC1 [Example 79, 3-(4-(3-methylazetidin-3-yl)benzyl)quinolin-2(1H)-one] | 11.5
5 | O=C1OC(CO)CN1c1ccc(Cc2cc3ccccc3[nH]c2=O)cn1 (racemic) [Example 49, rac-5-(hydroxymethyl)-3-(5-((2-oxo-1,2-dihydroquinolin-3-yl)methyl)pyridin-2-yl)oxazolidin-2-one] | 15.6
6 | CC(C)(C)n1cc(Cc2cc3ccccc3[nH]c2=O)cn1 [Example 110, 3-((1-(tert-butyl)-1H-pyrazol-4-yl)methyl)quinolin-2(1H)-one] | 11.5
7 | Cc1cc(Cc2cc3ccccc3[nH]c2=O)ccc1CNS(C)(=O)=O [Example 165, N-(2-methyl-4-((2-oxo-1,2-dihydroquinolin-3-yl)methyl)benzyl)methanesulfonamide] | 6.2
8 | CS(=N)(=O)Cc1ccc(Cc2cc3ccccc3[nH]c2=O)cc1 (single isomer, unassigned) [Example 186, 3-(4-(((R or S)-methylsulfonimidoyl)methyl)benzyl)quinolin-2(1H)-one] | 28.2
9 | CC(=O)c1cccc(Cc2cc3ccccc3[nH]c2=O)c1 [Example 86, 3-(3-acetylbenzyl)quinolin-2(1H)-one] | 0.9
10 | O=c1[nH]c2ccccc2cc1Cc1ccc([C@H]2CCNC2)cc1 [65B] | 9
11 | O=c1[nH]c2ccncc2cc1Cc1cccc(OC(F)(F)F)c1 [Example 117, 3-(3-(trifluoromethoxy)benzyl)-1,6-naphthyridin-2(1H)-one] | 2.1
12 | N#CC1(c2ccc(Cc3cc4ccccc4[nH]c3=O)cc2)CCOCC1 [Example 107, 4-(4-((2-oxo-1,2-dihydroquinolin-3-yl)methyl)phenyl)tetrahydro-2H-pyran-4-carbonitrile] | 3.2
13 | O=c1[nH]c2ncccc2cc1Cc1cccc(OC(F)(F)F)c1 [Example 106, 3-(3-(trifluoromethoxy)benzyl)-1,8-naphthyridin-2(1H)-one] | 958
14 | O=c1[nH]c2cccnc2cc1Cc1cccc(OC(F)(F)F)c1 [Example 105, 3-(3-(trifluoromethoxy)benzyl)-1,5-naphthyridin-2(1H)-one] | 619
15 | N#CC1(c2cccc(Cc3cc4cnccc4[nH]c3=O)c2)CC1 [Example 116, 1-(3-((2-oxo-1,2-dihydro-1,6-naphthyridin-3-yl)methyl)phenyl)cyclopropane-1-carbonitrile] | 1.7
16 | CC1(O)CC(c2ccc(Cc3cc4ccccc4[nH]c3=O)cc2)C1 (stereo not drawn) [Example 161, 3-(4-(3-hydroxy-3-methylcyclobutyl)benzyl)quinolin-2(1H)-one] | 3.2
17 | O=C1OCCN1c1ccc(Cc2cc3ccccc3[nH]c2=O)cn1 [Example 108, 3-(5-((2-oxo-1,2-dihydroquinolin-3-yl)methyl)pyridin-2-yl)oxazolidin-2-one] | 1.9
18 | NS(=O)(=O)Cc1ccc(Cc2cc3ccccc3[nH]c2=O)cc1 [Example 72, (4-((2-oxo-1,2-dihydroquinolin-3-yl)methyl)phenyl)methanesulfonamide] | 2.2

Other lines, results leading:

Row | EC50 [nM] | Structure (SMILES)
19 | 36.9 | O=c1[nH]c2ccccc2cc1Cc1cnc(-c2ccc(F)cc2)o1 [Example 138, 3-((2-(4-fluorophenyl)oxazol-5-yl)methyl)quinolin-2(1H)-one]
20 | 1 | N#CC1(c2ccc(Cc3cc4ccccc4[nH]c3=O)cc2)CC1 [Example 98, 1-(4-((2-oxo-1,2-dihydroquinolin-3-yl)methyl)phenyl)cyclopropane-1-carbonitrile]
21 | 4.2 | O=C1NCc2cc(F)c(Cc3cc4ccccc4[nH]c3=O)cc21 [Example 87, 3-((6-fluoro-3-ixoisoindolin-5-yl)methyl)quinolin-2(1H)-one]
22 | 10.2 | O=c1[nH]c2ccccc2cc1Cc1nnc(-c2cc3c(s2)CCC3)o1 [Example 39, 3-((5-(5,6-dihydro-4H-cyclopenta[b]thiophen-2-yl)-1,3,4-oxadiazol-2-yl)methyl)quinolin-2(1H)-one]
23 | 82.2 | O=c1[nH]c2ccccc2cc1Cc1nnc(-c2ccc(C(F)(F)F)cc2)o1 [Example 7, 3-((5-(4-(trifluoromethyl)phenyl)-1,3,4-oxadiazol-2-yl)methyl)quinolin-2(1H)-one]
24 | 7.7 | Cc1n[nH]c(-c2nnc(Cc3cc4ccccc4[nH]c3=O)o2)c1C [Example 44, 3-((5-(3,4-dimethyl-1H-pyrazol-5-yl)-1,3,4-oxadiazol-2-yl)methyl)quinolin-2(1H)-one]
25 | 5.4 | O=C1CCc2cc(Cc3cc4ccccc4[nH]c3=O)ccc2N1 [Example 154, 3-((2-oxo-1,2,3,4-tetrahydroquinolin-6-yl)methyl)quinolin-2(1H)-one]
26 | 8.5 | O=c1[nH]c2ccccc2cc1Cc1cnc(N2CCCC2)s1 [Example 139, 3-((2-(pyrrolidin-1-yl)thiazol-5-yl)methyl)quinolin-2(1H)-one]
27 | 5.7 | O=c1[nH]c2ccccc2cc1Cc1nnc(-c2cn3ccsc3n2)o1 [Example 13, 3-((5-(imidazo[2,1-b]thiazol-6-yl)-1,3,4-oxadiazol-2-yl)methyl)quinolin-2(1H)-one]
28 | 46.5 | COc1ccc(C#N)cc1Cc1nnc(Cc2cc3ccccc3[nH]c2=O)o1 [Example 35, 4-methoxy-3-((5-((2-oxo-1,2-dihydroquinolin-3-yl)methyl)-1,3,4-oxadiazol-2-yl)methyl)benzonitrile]
29 | 547 | Cc1oncc1-c1nnc(Cc2cc3ccccc3[nH]c2=O)o1 [Example 29, 3-((5-(5-methylisoxazol-4-yl)-1,3,4-oxadiazol-2-yl)methyl)quinolin-2(1H)-one]
30 | 2.3 | CN1C(=O)COc2ccc(Cc3cc4ccccc4[nH]c3=O)cc21 [Example 169, 4-Methyl-6-((2-oxo-1,2-dihydroquinolin-3-yl)methyl)-2H-benzo[b][1,4]oxazin-3(4H)-one]
31 | 7.6 | O=c1[nH]c2ccccc2cc1Cc1nnc(-c2cccc(C(F)(F)F)c2)o1 [Example 10, 3-((5-(3-(trifluoromethyl)phenyl)-1,3,4-oxadiazol-2-yl)methyl)quinolin-2(1H)-one]
32 | 177 | O=c1[nH]c2ccccc2cc1Cc1nnc(C2CC3(CCC3)C2)o1 [Example 21, 3-((5-(spiro[3.3]heptan-2-yl)-1,3,4-oxadiazol-2-yl)methyl)quinolin-2(1H)-one]
33 | 168 | O=c1[nH]c2ccccc2cc1Cc1nnc(C2CCC2)o1 [Example 32, 3-((5-cyclobutyl-1,3,4-oxadiazol-2-yl)methyl)quinolin-2(1H)-one]
34 | 21 | CC1(c2nnc(Cc3cc4ccccc4[nH]c3=O)o2)CC1 [Example 42, 3-((5-(1-methylcyclopropyl)-1,3,4-oxadiazol-2-yl)methyl)quinolin-2(1H)-one]
35 | 10.6 | O=c1[nH]c2ccccc2cc1Cc1cc(F)c2c(c1)CNC2 [Example 69, 3-((7-fluoroisoindolin-5-yl)methyl)quinolin-2(1H)-one]
36 | 77.1 | O=c1[nH]c2ccccc2cc1Cc1nnc(-c2cnn[nH]2)o1 [Example 4, 3-((5-(1H-1,2,3-triazol-5-yl)-1,3,4-oxadiazol-2-yl)methyl)quinolin-2(1H)-one]
37 | 125 | CC(c1nnc(Cc2cc3ccccc3[nH]c2=O)o1)C1CC1 (racemic) [Example 19, rac-3-((5-(1-cyclopropylethyl)-1,3,4-oxadiazol-2-yl)methyl)quinolin-2(1H)-one]
38 | 42 | O=c1[nH]c2ccccc2cc1Cc1nnc(-c2ccccc2)o1 [Example 5, 3-((5-phenyl-1,3,4-oxadiazol-2-yl)methyl)quinolin-2(1H)-one]
39 | 653 | O=c1[nH]c2ccccc2cc1Cc1nnc(C2(C(F)(F)F)CC2)o1 [Example 34, 3-((5-(1-(trifluoromethyl)cyclopropyl)-1,3,4-oxadiazol-2-yl)methyl)quinolin-2(1H)-one]
